# Reference: PubChem BioAssay AID2060351 (Molecular Pharmacology Branch, DTP, NCI, 2025)
# Where “and” joins values, the source holds several entries; their conditions need not be identical. Equal values may be shown once.
# System: 521955-158-R7-J2-PDC spheroids, viability % test/control
# Assay: Anticancer human tumor 521955-158-R7-J2-PDC patient-derived pancreatic carcinoma cell line growth inhibition [TAK]
# Settings: spheroids with HUVEC and MSC; for viability, T/C: stronger effect = lower value
# From the text: Combinatorial screen of targeted agents with TAK-243 and ipatasertib in multi-cell type tumor spheroids
# A high-throughput screen of multi-cell type tumor spheroids was designed to identify active combinations of targeted small molecules and TAK-243 or ipatasertib. Complex spheroids include a stromal component modeled by human endothelial cells (HUVEC) and fibroblasts modeled by human mesenchymal stem cells (MSCs). The concentration ranges selected for each drug and investigational agent were based upon clinically achievable concentrations if the clinical Cmax of the agent was known.
# Compounds. The drugs and investigational agents: TAK-243 (785004), ipatasertib (767898), everolimus (733504), selumetinib (741078), bortezomib (756655), trametinib (758246), ixazomib (758254), vemurafenib (761431), dabrafenib (764134), sapanisertib (764658), alpelisib (765974), and copanlisib (816437), were obtained from the National Cancer Institute (NCI) Developmental Therapeutics Program Chemical Repository. The FDA-approved anticancer drug set is available from the NCI Developmental Therapeutics Program. […] The stock solutions were prepared in dimethyl sulfoxide (DMSO, Sigma-Aldrich, St. Louis, MO, cat. D2650) at 800-fold the tested concentration and stored at -70 degrees C prior to their use. All drugs and investigational agents were tested over a range starting from a high concentration at or near the clinical Cmax and decreasing in half-log increments. If the clinical Cmax for an agent had not been determined, the highest concentration tested was 10 microM.
# NCI60 Cell Culture. NCI60 cell lines were obtained from the NCI Developmental Therapeutics Program Tumor Repository. For each lot of cells, the Repository performed Applied Biosystems AmpFLSTR Identifiler testing with PCR amplification to confirm consistency with the published Identifier STR profile for each cell line. Cells were kept in continuous culture for no more than 20 passages. The optimal seeding densities for each of the cell lines at each time point assessed were determined prior to performing the concentration response studies. Briefly, the NCI60 human tumor lines were grown as monolayers in RPMI 1640 medium supplemented with 10% FBS and 2 mmol/L L-glutamine.
# An additional 2 lines were from the NCI60 cell line panel including melanomas, MALME-3M and SK-MEL-2. Pooled donor human umbilical vein endothelial cells (HUVEC, Lonza, cat. CC-2519) and human mesenchymal stem cells (hMSC, Lonza, cat. PT-2501) were purchased from Lonza (Walkersville, MD).
# PDMR cell lines were grown in complete medium (DC medium): Dulbecco's modified Eagle's medium (DMEM)/F12 supplemented with 5% fetal bovine serum (FBS), 2 mM L-glutamine, 100 U/mL penicillin and 100 µg/ml streptomycin, 0.4 µg/ml hydrocortisone, 10 ng/ml epidermal growth factor (EGF) recombinant human protein, 24 µg/mL adenine, and 0.1 mg/mL primocin. During culture from frozen stock vials, PDMR cells were cultured in the same medium containing 10 µM Y-27632 (see Table 3). The PDCs were cultured in complete DMEM/F12 media without 10 microM Y-27632 dihydrochloride for at least two passages prior to the screen. The pooled donor HUVEC and hMSC were cultured in endothelial cell growth medium 2 (PromoCell, Heidelberg, Germany, cat. C-22011) and mesenchymal stem cell growth medium 2 (PromoCell, cat. C-28009), respectively. For all experiments, HUVEC and hMSC were used at passages </=5.
# For the pre-screen, cell seeding densities were determined from a titration spanning the range from 5,000 to 313 cells per well. The mct-spheroids including 60% malignant cells, 25% HUVEC and 15% MSC dispensed as a mixture into U-bottom Ultra-Low Attachment 384-well plates (Corning, NY)
# High-throughput Drug Combination Screening.
# Prior to their inoculation into 384-well plates, malignant cells, HUVEC, and hMSC were removed from T flasks using TrypLE express (Thermo Fisher Scientific, cat. 12605036) and harvested by centrifugation for 5 min at 233 x g. […]
# 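Also: spheroids exposed to compound for 7 days before readout.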
smiles,measurement,setting,value
COC1CC2CCC(C)C(O)(O2)C(=O)C(=O)N2CCCCC2C(=O)OC(C(C)CC2CCC(OCCO)C(OC)C2)CC(=O)C(C)C=C(C)C(O)C(OC)C(=O)C(C)CC(C)C=CC=CC=C1C (stereo not drawn),"viability, T/C",compound 0.000316 µM,103%
same,"viability, T/C",compound 0.001 µM,77.4% and 84.4%
same,"viability, T/C",compound 0.00316 µM,75.2% and 91.7%
same,"viability, T/C",compound 0.01 µM,90.3% and 101%
same,"viability, T/C",compound 0.0316 µM,109% and 117%
same,"viability, T/C",compound 0.1 µM,102% and 85.5%
same,IC50,curve of compound,> 100 nM
Cn1cnc2c(F)c(Nc3ccc(Br)cc3Cl)c(C(=O)NOCCO)cc21,"viability, T/C",compound 0.00949 µM,66.3% and 85.1%
same,"viability, T/C",compound 0.03 µM,54.9% and 61.7%
same,"viability, T/C",compound 0.0949 µM,38.7% and 44.3%
same,"viability, T/C",compound 0.3 µM,31.6% and 43.3%
same,"viability, T/C",compound 0.949 µM,25.7% and 30%
same,"viability, T/C",compound 3 µM,14.6% and 16.5%
same,IC50,curve of compound,41.6 nM and 87.7 nM
CC(=O)Nc1cccc(-n2c(=O)n(C3CC3)c(=O)c3c(Nc4ccc(I)cc4F)n(C)c(=O)c(C)c32)c1 + CC(C)NCC(C(=O)N1CCN(c2ncnc3c2C(C)CC3O)CC1)c1ccc(Cl)cc1,IC50,"curve of first compound, second compound 0.3 µM",1.34 nM
same,IC50,"curve of first compound, second compound 0.949 µM",1.4 nM
same,IC50,"curve of first compound, second compound 3 µM",0.802 nM
same,IC50,"curve of first compound, second compound 9.49 µM",0.763 nM
same,IC50,"curve of first compound, second compound 30 µM",0.786 nM
same,"viability, T/C","second compound 0.3 µM, first compound 94.9 pM",98.9%
same,"viability, T/C","second compound 0.3 µM, first compound 0.0003 µM",79.8%
same,"viability, T/C","second compound 0.3 µM, first compound 0.000949 µM",51.1%
same,"viability, T/C","second compound 0.3 µM, first compound 0.003 µM",39.4%
same,"viability, T/C","second compound 0.3 µM, first compound 0.00949 µM",23.8%
same,"viability, T/C","second compound 0.3 µM, first compound 0.03 µM",11.7%
same,"viability, T/C","second compound 0.949 µM, first compound 94.9 pM",106%
same,"viability, T/C","second compound 0.949 µM, first compound 0.0003 µM",83.6%
same,"viability, T/C","second compound 0.949 µM, first compound 0.000949 µM",50.4%
same,"viability, T/C","second compound 0.949 µM, first compound 0.003 µM",39.7%
same,"viability, T/C","second compound 0.949 µM, first compound 0.00949 µM",24.9%
same,"viability, T/C","second compound 0.949 µM, first compound 0.03 µM",10.5%
same,"viability, T/C","second compound 3 µM, first compound 94.9 pM",99.6%
same,"viability, T/C","second compound 3 µM, first compound 0.0003 µM",61.7%
same,"viability, T/C","second compound 3 µM, first compound 0.000949 µM",50.2%
same,"viability, T/C","second compound 3 µM, first compound 0.003 µM",31.8%
same,"viability, T/C","second compound 3 µM, first compound 0.00949 µM",23%
same,"viability, T/C","second compound 3 µM, first compound 0.03 µM",8.8%
same,"viability, T/C","second compound 9.49 µM, first compound 94.9 pM",82.7%
same,"viability, T/C","second compound 9.49 µM, first compound 0.0003 µM",68.7%
same,"viability, T/C","second compound 9.49 µM, first compound 0.000949 µM",40.3%
same,"viability, T/C","second compound 9.49 µM, first compound 0.003 µM",32.1%
same,"viability, T/C","second compound 9.49 µM, first compound 0.00949 µM",25%
same,"viability, T/C","second compound 9.49 µM, first compound 0.03 µM",7.94%
same,"viability, T/C","second compound 30 µM, first compound 94.9 pM",93.1%
same,"viability, T/C","second compound 30 µM, first compound 0.0003 µM",61.4%
same,"viability, T/C","second compound 30 µM, first compound 0.000949 µM",44.3%
same,"viability, T/C","second compound 30 µM, first compound 0.003 µM",35.5%
same,"viability, T/C","second compound 30 µM, first compound 0.00949 µM",20.4%
same,"viability, T/C","second compound 30 µM, first compound 0.03 µM",4.94%
Cc1nc(NC(=O)N2CCCC2C(N)=O)sc1-c1ccnc(C(C)(C)C(F)(F)F)c1 (stereo not drawn),"viability, T/C",compound 0.0316 µM,83.2% and 92.5%
same,"viability, T/C",compound 0.1 µM,64.2% and 84.5%
same,"viability, T/C",compound 0.316 µM,59.4% and 74%
same,"viability, T/C",compound 1 µM,70.8% and 73.5%
same,"viability, T/C",compound 3.16 µM,58.1% and 52.5%
same,"viability, T/C",compound 10 µM,34.1% and 30.3%
same,IC50,curve of compound,4560 nM and 3720 nM
CC(=O)Nc1cccc(-n2c(=O)n(C3CC3)c(=O)c3c(Nc4ccc(I)cc4F)n(C)c(=O)c(C)c32)c1,"viability, T/C",compound 94.9 pM,97.3% and 89.9%
same,"viability, T/C",compound 0.0003 µM,67.1% and 65.7%
same,"viability, T/C",compound 0.000949 µM,57.9% and 54.9%
same,"viability, T/C",compound 0.003 µM,48.7% and 39.5%
same,"viability, T/C",compound 0.00949 µM,32.1% and 27.2%
same,"viability, T/C",compound 0.03 µM,19.2% and 16.3%
same,IC50,curve of compound,1.89 nM and 1.25 nM
